Results reported in US20240336608A1, “IL4I1 INHIBITORS AND METHODS OF USE” (Merck Sharp & Dohme LLC, priority 2023, published 2024).

The compounds below were run against T1, recombinant IL4I1 (Homo sapiens, UniProt Q96RQ9) (assay: IL4I1 Enzymatic Assay (Amplex Red/HRP coupled detection of H2O2, fluorescence)). Details: 1 nM recombinant IL4I1; four-hour pre-incubation with compound; 1 mM each Phe, Tyr, Trp; ten-point titration.
T1 construct: purchased R&D Systems 5684-AO-020
T1 sequence (Q96RQ9 22-567): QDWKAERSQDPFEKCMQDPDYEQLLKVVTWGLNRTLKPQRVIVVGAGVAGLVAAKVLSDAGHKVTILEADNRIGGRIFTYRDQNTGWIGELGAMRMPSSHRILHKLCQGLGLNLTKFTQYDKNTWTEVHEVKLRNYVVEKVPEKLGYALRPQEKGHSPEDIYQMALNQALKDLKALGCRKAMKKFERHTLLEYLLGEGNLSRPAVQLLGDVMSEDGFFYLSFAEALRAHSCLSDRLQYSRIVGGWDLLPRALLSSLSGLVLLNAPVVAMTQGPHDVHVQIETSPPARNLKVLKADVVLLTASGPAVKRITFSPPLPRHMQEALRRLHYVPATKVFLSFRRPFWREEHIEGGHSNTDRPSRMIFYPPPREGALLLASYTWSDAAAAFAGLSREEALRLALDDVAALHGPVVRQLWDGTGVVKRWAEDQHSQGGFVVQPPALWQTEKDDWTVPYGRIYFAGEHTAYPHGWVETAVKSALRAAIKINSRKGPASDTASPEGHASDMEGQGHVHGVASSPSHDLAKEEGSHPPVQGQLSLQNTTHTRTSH
Assay type: biochemical
Method: Interleukin 4 inducible protein 1 (IL4I1) is an L-amino oxidase that catalyzes the oxidation of aromatic residues (Phe, Trp and Tyr): L-amino acid+H2O+O2→2-oxo acid+NH3+H2O2. Equal molar of H2O2 and the corresponding alpha-ketoacid are produced when IL4I1 and substrate are added. In this assay, the hydrogen peroxide generated by IL4I1 is then detected through a coupled reaction with Amplex Red (10-acetyl-3,7-dihydroxyphenoxazine) and […] (HRP) to produce Resorufin product that could be detected in the form of fluorescence signals. The assessment of the inhibitory effect of small molecules (EC50) on IL4I1 is measured by the effectiveness of the compounds to inhibit the production of H202.
Using this assay, the potency (EC50) of each compound was determined from a ten-point (1:3 serial dilution) titration curve using the following outlined procedure. To each well of a black flat-bottom Greiner (Cat #781076) 384 well-plate, 125 nL of compound (0.5% DMSO in final assay volume of 25 μL) was dispensed, followed by the addition of 12.5 μL of 1× assay buffer (50 mM Hepes 7.0 and 0.005% Tween20 (Sigma, Cat #P8341; low peroxide grade)) containing 2 nM of recombinant IL4I1 (R&D Systems, Cat #5684-AO-020). Plates were placed in an ambient temperature humidified chamber for a four-hour pre-incubation with compound. Subsequently, each reaction was initiated by the addition of 12.5 μL 1× assay buffer containing 2 mM of each aromatic amino acids (Phe/Tyr/Trp), 0.1 mM Amplex Red and 2 U/mL of HRP. The final reaction in each well of 25 μL consists of 1 nM of IL4I1, 1 mM of each residue (Phe, Tyr and Trp), 0.05 mM Amplex Red and 1 U/mL of HRP. It should be noted that the concentrations of Amplex Red and HRP used here are in excess such that the conversion of H2O2 to Resorufin product occurs instantaneously and non-rate limiting. Reactions were allowed to proceed for 120 minutes followed by fluorescence readout on a Spectramax with the following set parameters: 544 nm excitation/590 nm emission, 570 nm cutoff (EnVision is an alternative reader). Dose-response curves were generated by plotting percent effect (% inhibition; Y-axis) vs. Log10 compound concentrations (X-axis). EC50 values were calculated using a non-linear regression, four-parameters sigmoidal dose-response model and are shown in Table 16.

| SMILES | EC50 [nM] |
| --- | --- |
| O=C(NCc1nnc(-c2ccccc2)s1)c1cc(CO)n[nH]1 [Example 4, 3-(hydroxymethyl)-N-((5-phenyl-1,3,4-thiadiazol-2-yl)methyl)-1H-pyrazole-5-carboxamide] | 69 |
| O=C(NCc1nnc(-c2ccccc2)s1)c1cn([C@H]2CO[C@H]3[C@@H]2OC[C@H]3O)nn1 [Example 5, 1-[(3S,3aR,6R,6aR)-6-hydroxy-2,3,3a,5,6,6a-hexahydrofuro[3,2-b]furan-3-yl]-N-[(5-phenyl-1,3,4-thiadiazol-2-yl)methyl]triazole-4-carboxamide] | 164 |
| O=C(NCc1nnc(-c2ccccc2)s1)c1cc2c(s1)CCC2 [Example 6, N-[(5-phenyl-1,3,4-thiadiazol-2-yl)methyl]-5,6-dihydro-4H-cyclopenta[b]thiophene-2-carboxamide] | 62 |
| CCOc1ccsc1C(=O)NCc1nnc(-c2ccccc2)s1 [Example 8, 3-ethoxy-N-[(5-phenyl-1,3,4-thiadiazol-2-yl)methyl]thiophene-2-carboxamide] | 3 |
| CC(C)(C)c1cc(C(=O)NCc2nnc(-c3ccccc3)s2)[nH]n1 [Example 9, 3-(tert-butyl)-N-((5-phenyl-1,3,4-thiadiazol-2-yl)methyl)-1H-pyrazole-5-carboxamide] | 480 |
| O=C(NCc1nnc(-c2ccccc2)s1)c1c[nH]c(C2CC2)n1 [Example 11, 2-cyclopropyl-N-((5-phenyl-1,3,4-thiadiazol-2-yl)methyl)-1H-imidazole-4-carboxamide] | 265 |
| Cc1cccn2cc(C(=O)NCc3nnc(-c4ccccc4)s3)nc12 [Example 13, 8-methyl-N-((5-phenyl-1,3,4-thiadiazol-2-yl)methyl)imidazo[1,2-a]pyridine-2-carboxamide] | 341 |
| Cn1ccc(C(=O)NCc2nnc(-c3ccccc3)s2)n1 [Example 14, 1-methyl-N-[(5-phenyl-1,3,4-thiadiazol-2-yl)methyl]pyrazole-3-carboxamide] | 291 |
| O=C(NCc1nnc(-c2ccccc2)s1)c1csc(Cc2ccccc2)n1 [Example 16, 2-benzyl-N-((5-phenyl-1,3,4-thiadiazol-2-yl)methyl)thiazole-4-carboxamide] | 84 |
| CCn1ccc(C(=O)NCc2nnc(-c3ccccc3)s2)c1 [Example 18, 1-ethyl-N-[(5-phenyl-1,3,4-thiadiazol-2-yl)methyl]pyrrole-3-carboxamide] | 40 |
| Cc1c(C(=O)NCc2nnc(-c3ccccc3)s2)oc2cccc(O)c12 [Example 20, 4-hydroxy-3-methyl-N-[(5-phenyl-1,3,4-thiadiazol-2-yl)methyl]benzofuran-2-carboxamide] | 340 |
| CC(C)Cc1cc(C(=O)NCc2nnc(-c3ccccc3)s2)[nH]n1 [Example 21, 3-isobutyl-N-((5-phenyl-1,3,4-thiadiazol-2-yl)methyl)-1H-pyrazole-5-carboxamide] | 209 |
| O=C(NCc1nnc(-c2ccccc2)s1)c1scc2c1OCCO2 [Example 22, N-[(5-phenyl-1,3,4-thiadiazol-2-yl)methyl]-2,3-dihydrothieno[3,4-b][1,4]dioxine-5-carboxamide] | 27 |
| O=C(NCc1nnc(-c2ccccc2)s1)c1cc(C(F)(F)F)n[nH]1 [Example 28, N-[(5-phenyl-1,3,4-thiadiazol-2-yl)methyl]-3-(trifluoromethyl)-1H-pyrazole-5-carboxamide] | 710 |
| COc1ccsc1C(=O)NCc1nnc(-c2ccccc2)s1 [Example 29, 3-methoxy-N-[(5-phenyl-1,3,4-thiadiazol-2-yl)methyl]thiophene-2-carboxamide] | 10 |
| O=C(NCc1nnc(-c2ccccc2)s1)c1cn([C@@H]2CO[C@H]3[C@@H]2OC[C@H]3O)nn1 [Example 30, 1-((3R,3aR,6R,6aR)-6-hydroxyhexahydrofuro[3,2-b]furan-3-yl)-N-((5-phenyl-1,3,4-thiadiazol-2-yl)methyl)-1H-1,2,3-triazole-4-carboxamide] | 130 |

More lines, now with the values ahead:

| EC50 [nM] | SMILES |
| --- | --- |
| 197 | CC(C)c1cc(C(=O)NCc2nnc(-c3ccccc3)s2)n[nH]1 [Example 2, 5-isopropyl-N-[(5-phenyl-1,3,4-thiadiazol-2-yl)methyl]-1H-pyrazole-3-carboxamide] |
| 9 | CC(O)c1cc(C(=O)NCc2nnc(-c3ccccc3)s2)no1 (stereo not shown) [Example 3, 5-(1-hydroxyethyl)-N-[(5-phenyl-1,3,4-thiadiazol-2-yl)methyl]isoxazole-3-carboxamide] |
| 8 | CC(C)Cc1cc(C(=O)NCc2nnc(-c3ccccc3)s2)no1 [Example 7, 5-isobutyl-N-[(5-phenyl-1,3,4-thiadiazol-2-yl)methyl]isoxazole-3-carboxamide] |
| 10 | Cc1csc(C(=O)NCc2nnc(-c3ccccc3)s2)c1 [Example 10, 4-methyl-N-[(5-phenyl-1,3,4-thiadiazol-2-yl)methyl]thiophene-2-carboxamide] |
| 90 | Cc1ccc(C(=O)NCc2nnc(-c3ccccc3)s2)s1 [Example 12, 5-methyl-N-[(5-phenyl-1,3,4-thiadiazol-2-yl)methyl]thiophene-2-carboxamide] |
| 153 | Cc1ccsc1C(=O)NCc1nnc(-c2ccccc2)s1 [Example 15, 3-methyl-N-[(5-phenyl-1,3,4-thiadiazol-2-yl)methyl]thiophene-2-carboxamide] |
| 474 | Cc1ccc(C(=O)NCc2nnc(-c3ccccc3)s2)[nH]1 [Example 17, 5-methyl-N-[(5-phenyl-1,3,4-thiadiazol-2-yl)methyl]-1H-pyrrole-2-carboxamide] |
| 18 | Cn1cc(C(=O)NCc2nnc(-c3ccccc3)s2)nn1 [Example 19, 1-methyl-N-[(5-phenyl-1,3,4-thiadiazol-2-yl)methyl]triazole-4-carboxamide] |
| 207 | Cc1cc(C(=O)NCc2nnc(-c3ccccc3)s2)no1 [Example 23, 5-methyl-N-[(5-phenyl-1,3,4-thiadiazol-2-yl)methyl]isoxazole-3-carboxamide] |
| 93 | Cc1onc(C(=O)NCc2nnc(-c3ccccc3)s2)c1C [Example 24, 4,5-dimethyl-N-[(5-phenyl-1,3,4-thiadiazol-2-yl)methyl]isoxazole-3-carboxamide] |
| 76 | Cc1cc(C(=O)NCc2nnc(-c3ccccc3)s2)on1 [Example 25, 3-methyl-N-[(5-phenyl-1,3,4-thiadiazol-2-yl)methyl]isoxazole-5-carboxamide] |
| 43 | CC(C)c1cc(C(=O)NCc2nnc(-c3ccccc3)s2)no1 [Example 26, 5-isopropyl-N-[(5-phenyl-1,3,4-thiadiazol-2-yl)methyl]isoxazole-3-carboxamide] |
| 292 | Cc1n[nH]c(C(=O)NCc2nnc(-c3ccccc3)s2)n1 [Example 27, 3-methyl-N-((5-phenyl-1,3,4-thiadiazol-2-yl)methyl)-1H-1,2,4-triazole-5-carboxamide] |
| 42 | O=C(NCc1nnc(-c2ccccc2)s1)c1n[nH]c(C2CC2)c1F [Example 31, 5-cyclopropyl-4-fluoro-N-[(5-phenyl-1,3,4-thiadiazol-2-yl)methyl]-1H-pyrazole-3-carboxamide] |
| 77 | Cn1cnc(C(=O)NCc2nnc(-c3ccccc3)s2)c1 [Example 32, 1-methyl-N-((5-phenyl-1,3,4-thiadiazol-2-yl)methyl)-1H-imidazole-4-carboxamide] |
